Values after ≈ are worked out from the molar mass of the structure shown. Like-named read-outs stand apart in the source and are kept apart here. A value given as a limit tells only on which side of the number the result lay.

Assay [1] concerns Pseudomonas aeruginosa (ATCC 27853). Description: MIC, broth microdilution. As to conditions: for MIC: Pseudomonas aeruginosa.
In assay [2] the test system is PAM3073 aac(6′)-I. The assay is described as follows: microbe, parasite or virus in culture. In kind it is cell-based, Pseudomonas aeruginosa. The procedure, abridged: (§1)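 Broth microdilution per CLSI guidelines: compounds serially diluted 2-fold in cation-adjusted Mueller Hinton broth, inoculum 5×10^5 CFU/ml from overnight colonies, 18 hours at 35° C. MIC read by turbidity at 600 nm and confirmed visually.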

Assay [3] concerns PAM3072 aac(6′)-II. Description: microbe, parasite or virus in culture. Format: cell-based, Pseudomonas aeruginosa. The procedure, abridged:
as §1

Assay [4] deals with ECM6006 aph(3′)-III. The assay is described as follows: microbe, parasite or virus in culture. In kind it is cell-based, Escherichia coli. The procedure, abridged:
(§2)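 Broth microdilution per CLSI M7-A7 in cation-adjusted Mueller Hinton broth, 2-fold serial dilutions, inoculum 5×10^5 CFU/ml from overnight colonies. Incubated 18 hours at 35° C. MIC read as turbidity at 600 nm, confirmed visually.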

Assay [5] concerns ECM6010 ant(2″)-I. The assay is described as follows: microbe, parasite or virus in culture. Format: cell-based, Escherichia coli. The procedure, abridged:
as §2

In assay [6] the test system is ECM6009 aac(3)-II. Description: microbe, parasite or virus in culture. Format: cell-based, Escherichia coli. The procedure, abridged:
as §2

Assay [7] has as its system ECM6011 aph(3′)-I. The assay is described as follows: microbe, parasite or virus in culture. In kind it is cell-based, Escherichia coli. The procedure, abridged:
as §2

For assay [8], the system named is Staphylococcus aureus (ATCC 29213). The assay is described as follows: MIC, broth microdilution. Conditions: for MIC: Staphylococcus aureus. On the technique in general: Broth dilution looks for growth in wells or tubes with falling amounts of substance.
Assay [9] concerns ACM1006 acc(6′)-Ib. The assay is described as follows: microbe, parasite or virus in culture. In kind it is cell-based, Acinetobacter baumannii. The procedure, abridged:
as §1

The test system of assay [10] is Sa 287 aac(6′) + aph(2″). The assay is described as follows: microbe, parasite or virus in culture. Format: cell-based, Staphylococcus aureus. The protocol: To compare microbiological activity of the test compounds, minimum inhibitory concentrations (MIC.s) were determined. Antibiotic MICs were obtained using the broth microdilution method according to Clinical and Laboratory Standards Institute (CLSI) approved guidelines (Methods for dilution antimicrobial susceptibility tests for bacteria that grow aerobically; approved standard—7th ed. CLSI document M7-A7. Clinical and Laboratory Standards Institute, Wayne, Pa., incorporated herein by reference in its entirety). Antibiotics were dissolved as specified by CLSI (Performance standards for antimicrobial susceptibility testing; Seventeenth informational supplement. CLSI document M100-S17. Clinical and Laboratory Standards Institute, Wayne, Pa., incorporated herein by reference in its entirety), and were serially diluted 2-fold in cation adjusted Mueller Hinton Broth (CaMHB) at 2× concentration. Bacterial inoculums were prepared in CaMHB by suspension of a colony from an agar plate that was prepared the previous day to obtain a final concentration of 5×10^5CFU/ml. The plates were incubated for 18 hours at 35° C. […] MIC.s were determined by reading the turbidity of plate wells using a SpectraMax Plus384 plate reader (Molecular Devices, Sunnyvale, Calif., USA) at 600 nm and were confirmed by visual inspection.

Assay [11] deals with ACM1005 ATCC 19004. The assay is described as follows: MIC, broth microdilution. Format: cell-based, Acinetobacter baumannii. The procedure, abridged:
as §1

Assay [12] concerns ECM6003 rmtB. Description: microbe, parasite or virus in culture. In kind it is cell-based, Escherichia coli. The procedure, abridged: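 Broth microdilution per CLSI M7-A7 in cation-adjusted Mueller Hinton broth with 2-fold serial dilutions and 5×10^5 CFU/ml inoculum. Incubated 18 hours at 35 °C; MIC read by turbidity at 600 nm and confirmed visually.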
Assay [13] deals with EC1002 aph(3′)-IV. Description: organism not typed. Format: cell-based. The procedure, abridged:
as §2

Assay [14] deals with Acinetobacter baumannii (ATCC 19606). The assay is described as follows: MIC, broth microdilution. As to conditions: Acinetobacter baumannii, ATCC19606, read-out: Compound MIC on Bacterial Strains: A. baumannii ATCC 19606.
Assay [15] concerns Escherichia coli (ATCC 25922). The assay is described as follows: MIC, broth microdilution. As to conditions: for MIC: Escherichia coli.
Assay [16] has as its system Klebsiella pneumonia (ATCC 43816). Description: MIC, broth microdilution. As to conditions: Klebsiella pneumoniae, ATCC43816, read-out: Compound MIC on Bacterial Strains: K. pneumonia ATCC 43816.
Assay [17] relates to ECM6007 aac(6′) + aph(2″). The assay is described as follows: microbe, parasite or virus in culture. In kind it is cell-based, Escherichia coli. The procedure, abridged:
as §1

Assay [18] relates to EC1001 acc(6′)-Ib. The assay is described as follows: microbe, parasite or virus in culture. Format: cell-based, Escherichia coli. The procedure, abridged: as §1

As to `NC[C@H]1O[C@H](O[C@H]2[C@H](O)[C@@H](O[C@H]3O[C@H](CO)[C@@H](O)[C@H](N)[C@H]3O)[C@H](N)C[C@@H]2N)[C@H](N)C[C@@H]1O` [Tobramycin, reference compound], the MIC was < 1 µg/mL in assay [1] (ATCC27853, read-out: Compound MIC on Bacterial Strains: P. aeruginosa ATCC 27853); < 1 µg/mL in assay [1] (ATCC27853, read-out: Compound MIC on Bacterial Strains: Pseudomonas aeruginosa PAM3034 ATCC 27853); > 8 µg/mL in assay [2] (Pseudomonas aeruginosa, Table 5, read-out: Compound MIC on Bacterial Strains: Pseudomonas aeruginosa PAM3073 aac(6′)-I); > 8 µg/mL in [3] (Pseudomonas aeruginosa, Table 5, read-out: Compound MIC on Bacterial Strains: Pseudomonas aeruginosa PAM3072 aac(6′)-II); 1 to 8 µg/mL (≈ 2.14 to 17.1 µM) in assay [4] (Escherichia coli, read-out: Compound MIC on Bacterial Strains: ECM6006 aph(3′)-III); > 8 µg/mL in [5] (Escherichia coli, read-out: Compound MIC on Bacterial Strains: ECM6010 ant(2″)-I). Further, the MIC in assay [6] (Escherichia coli, read-out: Compound MIC on Bacterial Strains: ECM6009 aac(3)-II) was > 8 µg/mL; in [7] (Escherichia coli, read-out: Compound MIC on Bacterial Strains: ECM6011 aph(3′)-I) it was 1 to 8 µg/mL (≈ 2.14 to 17.1 µM); in assay [8] (ATCC29213, read-out: Compound MIC on Bacterial Strains: S. aureus ATCC 29213, QC strain, Table 2), < 1 µg/mL; in [8] (ATCC29213, read-out: Compound MIC on Bacterial Strains: Staphylococcus aureus SAM1000 ATCC 29213, Table 5), < 1 µg/mL; in assay [9] (Acinetobacter baumannii, Table 4, read-out: Compound MIC on Bacterial Strains: Acinetobacter baumannii ACM1006 acc(6′)-Ib), > 8 µg/mL; in [10] (Staphylococcus aureus, 18 h, Table 5, read-out: Compound MIC on Bacterial Strains: Staphylococcus aureus Sa 287 aac(6′) + aph(2″)) it was > 8 µg/mL. In addition, the MIC in [11] (Acinetobacter baumannii, ATCC19004, Table 4, read-out: Compound MIC on Bacterial Strains: Acinetobacter baumannii ACM1005 ATCC 19004) is < 1 µg/mL; in assay [12] (Escherichia coli, Table 3, read-out: Compound MIC on Bacterial Strains: ECM6003 rmtB), > 8 µg/mL; in [13] (read-out: Compound MIC on Bacterial Strains: EC1002 aph(3′)-IV), < 1 µg/mL; in assay [14], 1 to 8 µg/mL (≈ 2.14 to 17.1 µM); in assay [15] (ATCC25922, read-out: Compound MIC on Bacterial Strains: E. coli ATCC 25922), < 1 µg/mL; in [15] (ATCC25922, read-out: Compound MIC on Bacterial Strains: ECM6000 ATCC 25922) it was < 1 µg/mL. For the same compound, the MIC in assay [15] (ATCC25922, read-out: Compound MIC on Bacterial Strains: Escherichia coli ECM6000 ATCC 25922) is < 1 µg/mL; in assay [16], < 1 µg/mL; in assay [17] (Escherichia coli, 18 h, Table 4, read-out: Compound MIC on Bacterial Strains: Escherichia coli ECM6007 aac(6′) + aph(2″)), > 8 µg/mL; in assay [18] (Escherichia coli, Table 4, read-out: Compound MIC on Bacterial Strains: Escherichia coli EC1001 acc(6′)-Ib), > 8 µg/mL.

In the case of Gentamicin C1a [reference compound], the “Compound MIC on Bacterial Strains: Pseudomonas aeruginosa PAM3034 ATCC 27853” value in assay [1] is given as “A (key: A: MIC of 1 μg/ml or less; B: MIC of greater than 1 μg/ml to 8 μg/ml; MIC of greater than 8 μg/ml)”. Besides, in assay [2], the “Compound MIC on Bacterial Strains: Pseudomonas aeruginosa PAM3073 aac(6′)-I” value is recorded as “B (key: A: MIC of 1 μg/ml or less; B: MIC of greater than 1 μg/ml to 8 μg/ml; MIC of greater than 8 μg/ml)”. Moreover, the “Compound MIC on Bacterial Strains: Pseudomonas aeruginosa PAM3072 aac(6′)-II” value in assay [3] is reported as “C (key: A: MIC of 1 μg/ml or less; B: MIC of greater than 1 μg/ml to 8 μg/ml; MIC of greater than 8 μg/ml)”. Besides, the “Compound MIC on Bacterial Strains: ECM6006 aph(3′)-III” value in assay [4] was “B (key: A: MIC of 1 μg/ml or less; B: MIC of greater than 1 μg/ml to 8 μg/ml; MIC of greater than 8 μg/ml)”. For the same compound, the “Compound MIC on Bacterial Strains: ECM6010 ant(2″)-I” value in [5] is recorded as “C (key: A: MIC of 1 μg/ml or less; B: MIC of greater than 1 μg/ml to 8 μg/ml; MIC of greater than 8 μg/ml)”. In [6], the “Compound MIC on Bacterial Strains: ECM6009 aac(3)-II” value is listed as “C (key: A: MIC of 1 μg/ml or less; B: MIC of greater than 1 μg/ml to 8 μg/ml; MIC of greater than 8 μg/ml)”. In assay [7], the “Compound MIC on Bacterial Strains: ECM6011 aph(3′)-I” value was “B (key: A: MIC of 1 μg/ml or less; B: MIC of greater than 1 μg/ml to 8 μg/ml; MIC of greater than 8 μg/ml)”. For the same compound, the “Compound MIC on Bacterial Strains: Staphylococcus aureus SAM1000 ATCC 29213” value in assay [8] is “A (key: A: MIC of 1 μg/ml or less; B: MIC of greater than 1 μg/ml to 8 μg/ml; MIC of greater than 8 μg/ml)”. In addition, in [9], the “Compound MIC on Bacterial Strains: Acinetobacter baumannii ACM1006 acc(6′)-Ib” value is on record as “C (key: A: MIC of 1 μg/ml or less; B: MIC of greater than 1 μg/ml to 8 μg/ml; MIC of greater than 8 μg/ml)”. Also, the “Compound MIC on Bacterial Strains: Staphylococcus aureus Sa 287 aac(6′) + aph(2″)” value in assay [10] is on record as “C (key: A: MIC of 1 μg/ml or less; B: MIC of greater than 1 μg/ml to 8 μg/ml; MIC of greater than 8 μg/ml)”. The “Compound MIC on Bacterial Strains: Acinetobacter baumannii ACM1005 ATCC 19004” value in [11] is reported as “A (key: A: MIC of 1 μg/ml or less; B: MIC of greater than 1 μg/ml to 8 μg/ml; MIC of greater than 8 μg/ml)”. Moreover, the “Compound MIC on Bacterial Strains: ECM6003 rmtB” value in [12] was “C (key: A: MIC of 1 μg/ml or less; B: MIC of greater than 1 μg/ml to 8 μg/ml; MIC of greater than 8 μg/ml)”. Further, in assay [13], the “Compound MIC on Bacterial Strains: EC1002 aph(3′)-IV” value was “A (key: A: MIC of 1 μg/ml or less; B: MIC of greater than 1 μg/ml to 8 μg/ml; MIC of greater than 8 μg/ml)”. Besides, in [15], the “Compound MIC on Bacterial Strains: ECM6000 ATCC 25922” value was “A (key: A: MIC of 1 μg/ml or less; B: MIC of greater than 1 μg/ml to 8 μg/ml; MIC of greater than 8 μg/ml)” and the “Compound MIC on Bacterial Strains: Escherichia coli ECM6000 ATCC 25922” value was “A (key: A: MIC of 1 μg/ml or less; B: MIC of greater than 1 μg/ml to 8 μg/ml; MIC of greater than 8 μg/ml)”. The “Compound MIC on Bacterial Strains: Escherichia coli ECM6007 aac(6′) + aph(2″)” value in [17] was “B (key: A: MIC of 1 μg/ml or less; B: MIC of greater than 1 μg/ml to 8 μg/ml; MIC of greater than 8 μg/ml)”. The “Compound MIC on Bacterial Strains: Escherichia coli EC1001 acc(6′)-Ib” value in assay [18] is listed as “C (key: A: MIC of 1 μg/ml or less; B: MIC of greater than 1 μg/ml to 8 μg/ml; MIC of greater than 8 μg/ml)”.

The values above are taken from patent US8906868B2, “Aminoglycoside derivatives” (Rempex Pharmaceuticals, Inc., priority 2010, dated 2014).
